Laboratory results as given in ChEMBL document CHEMBL1201862, “PubChem BioAssay data set” (2004).
Active and inactive are the calls of the source.

Assays:
Protein S100-A4 = Protein S100-A4 (Homo sapiens, UniProt P26447); assay: human S100A4 peptide interaction inhibition curves – biochemical, fluorescence polarization, cherry-picked hits, dose response (AID 687001); type: functional
[1] = molecular target: T1, High affinity choline transporter 1 (Homo sapiens, UniProt Q9GZV3); assay: human choline transporter radiolabel uptake blockers – cell-based, 3H-choline uptake, CHT LV-AA trafficking mutant, CRC, dose response (AID 602208); type: functional
T1 sequence (Q9GZV3 whole entry): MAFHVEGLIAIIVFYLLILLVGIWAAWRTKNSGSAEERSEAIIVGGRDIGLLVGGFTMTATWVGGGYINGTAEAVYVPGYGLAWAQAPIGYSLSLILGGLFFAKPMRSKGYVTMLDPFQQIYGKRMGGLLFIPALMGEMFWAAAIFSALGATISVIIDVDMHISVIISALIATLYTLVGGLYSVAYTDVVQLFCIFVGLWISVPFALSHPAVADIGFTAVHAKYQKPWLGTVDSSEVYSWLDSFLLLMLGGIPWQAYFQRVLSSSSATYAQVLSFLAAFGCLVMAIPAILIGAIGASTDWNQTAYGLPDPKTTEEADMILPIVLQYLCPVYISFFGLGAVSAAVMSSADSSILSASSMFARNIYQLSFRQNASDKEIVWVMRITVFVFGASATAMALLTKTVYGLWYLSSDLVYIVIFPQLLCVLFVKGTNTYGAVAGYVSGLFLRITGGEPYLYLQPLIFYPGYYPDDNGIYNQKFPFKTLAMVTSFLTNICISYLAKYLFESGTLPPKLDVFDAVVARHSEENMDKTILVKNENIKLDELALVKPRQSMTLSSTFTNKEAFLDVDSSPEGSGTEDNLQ

[2] = molecular target: T1, High affinity choline transporter 1; assay: human choline transporter blockers, potency – cell-based, 5-point CRC, membrane potential dye, dose response (AID 504840); type: functional
[3] = molecular target: T1, High affinity choline transporter 1; assay: human choline transporter blockers, potency – cell-based, 10-point CRC, membrane potential dye, dose response (AID 588401); type: functional;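 also: membrane potential dye fluorescence of choline-evoked depolarization via CHT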
[4] = molecular target: T2, ATP-dependent translocase ABCB1 (Homo sapiens, UniProt P08183); assay: inhibition of P-gp mediated JC-1 efflux – Jurkat-DNR cells, flow cytometry, dose response (AID 1689); type: functional
[5] = molecular target: Broad substrate specificity ATP-binding cassette transporter ABCG2 (Homo sapiens, UniProt Q9UNQ0); assay: blockers of JC-1 export by ABCG2 – Ig-MXP3 cells, flow cytometry, dose response (AID 1690); type: functional
Interleukin-8 [6] = molecular target: T3, Interleukin-8 (Homo sapiens, UniProt P10145); assay: Dose Response confirmation of uHTS small molecule hits for cystic fibrosis induced NFkb Inhibitors in a PAF-induced IL8 counterscreen.; type: functional; conditions: read-out: IC50_Mean
T3 sequence (P10145 whole entry): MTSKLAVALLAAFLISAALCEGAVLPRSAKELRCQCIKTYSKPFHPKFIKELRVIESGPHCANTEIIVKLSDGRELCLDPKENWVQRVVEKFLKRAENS

Interleukin-8 [7] = molecular target: T3, Interleukin-8; assay: Dose Response confirmation of uHTS small molecule hits for cystic fibrosis induced NFkb Inhibitors in a TNFa-induced IL8 counterscreen.; type: functional; conditions: read-out: IC50_Mean
Beta-lactamase [8] = molecular target: T4, Beta-lactamase (Pseudomonas aeruginosa, UniProt Q79MP6); assay: inhibition of IMP-1 beta-lactamase activity – biochemical, epi-absorbance, selectivity assay for VIM-2 inhibitor project, dose response (AID 1920)
Beta-lactamase [9] = molecular target: Beta-lactamase (Salmonella choleraesuis (strain SC-B67), UniProt Q5J463); assay: Epi-absorbance-based counterscreen for selective VIM-2 inhibitors: dose response biochemical high throughput screening assay to identify inhibitors of TEM-1 serine-beta-lactamase.
Beta-lactamase [10] = molecular target: T4, Beta-lactamase; assay: […] counterscreen for selective VIM-2 inhibitors: dose response biochemical high throughput screening assay to identify inhibitors of IMP-1 metallo-beta-lactamase.
[11] = molecular target: DNA repair and recombination protein RAD54-like (Homo sapiens, UniProt Q92698); assay: RAD54 Holliday junction migration blockers – biochemical, fluorescence, cherry-picked samples, dose series, confirmation (AID 651657); type: functional
[12] = molecular target: T5, Sentrin-specific protease 1 (Homo sapiens, UniProt Q9P0U3); assay: Dose response confirmation of small molecule inhibitors of the catalytic domain of the SUMO protease, SENP1 in a FRET assay.; type: functional; conditions: read-out: IC50_Mean
[13] = molecular target: T5, Sentrin-specific protease 1; assay: SENP1 catalytic domain blockers, concentration series – biochemical, kinetic FRET, dose response (AID 651697); type: functional; conditions: read-out: IC50_Mean
[14] = inhibition of ARNT PAS-B/TACC3 complex formation – biochemical, AlphaScreen, cherry-picked samples, confirmation (AID 651703); type: functional, Homo sapiens;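 also: His-tagged ARNT PAS-B domain paired with GST-TACC3 E629A dimer coactivator fragment; potency of inhibitors that break up the complex and lower AlphaScreen signal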
[15] = molecular target: T2, ATP-dependent translocase ABCB1; assay: inhibition of BCRP-mediated JC-1 efflux – Ig-MXP3 cells, flow cytometry, set 2, dose response (AID 504566); type: functional; conditions: read-out: EC50_MICROM_;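 also: flow cytometry median green fluorescence of retained JC-1 dye; potency of efflux pump inhibition measured as rising substrate retention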
[16] = molecular target: T2, ATP-dependent translocase ABCB1; assay: P-gp JC-1 efflux blockade concentration-response – Jurkat-DNR cells, flow cytometry, set 2, dose response (AID 504569); type: functional; conditions: read-out: EC50_MICROM_;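 also: potency of pump inhibitors that raise cellular JC-1 green fluorescence up to the nicardipine level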
[17] = molecular target: T6, Calpain-2 catalytic subunit (Sus scrofa, UniProt P43367); assay: m-calpain protease blockers, concentration series – biochemical, fluorogenic peptide substrate, dose response (AID 1420); type: functional
T6 sequence (P43367 whole entry): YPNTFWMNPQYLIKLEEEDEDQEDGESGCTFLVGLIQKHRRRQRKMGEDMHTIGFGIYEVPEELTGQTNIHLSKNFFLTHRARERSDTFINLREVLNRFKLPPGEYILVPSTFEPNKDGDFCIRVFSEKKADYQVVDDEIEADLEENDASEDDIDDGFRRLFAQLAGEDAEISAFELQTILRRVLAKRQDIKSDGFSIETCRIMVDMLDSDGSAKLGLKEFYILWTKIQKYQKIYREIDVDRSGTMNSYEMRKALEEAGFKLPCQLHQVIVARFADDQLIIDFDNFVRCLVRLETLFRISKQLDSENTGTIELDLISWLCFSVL

[18] = molecular target: Mitochondrial peptide methionine sulfoxide reductase (Bos taurus, UniProt P54149); type: functional;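 also: absorbance read-out, biochemical high-throughput dose-response screen for MsrA inhibitors, confirmatory; recombinant bovine MsrA coupled to E. coli TrxB with NADPH and selenocystamine; potency is for inhibitors of MsrA activity on DMSO substrate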
[19] = luciferase reporter signal suppression in cells – H4 neuroglioma cells, luminescence, dose response (AID 1990); type: functional, cell-based
Cytochrome P450 2D6 = Cytochrome P450 2D6 (Homo sapiens, UniProt P10635);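 also: CYP2D6 member of a cytochrome P450 panel assay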
Cytochrome P450 2C9 = Cytochrome P450 2C9 (Homo sapiens, UniProt P11712)
[20] = reduced cellular PGC1a acetyl-lysine signal – cell-based, cherry-picked samples, dose response (AID 720514); type: functional;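 also: potency may reflect raised or lowered acetylation signal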
Cytochrome P450 2C19 = Cytochrome P450 2C19 (Homo sapiens, UniProt P33261); assay: Cytochrome panel assay with activity outcomes. Panel member name: p450-cyp2c19 Compounds with AC50 equal or less than 10 uM are considered active; type: functional
Streptococcus = assay: GAS UMAA2166 growth inhibition – luminescence, BacTiterGlo, counter-screen for streptokinase expression inhibitor project, dose response (AID 1915); type: functional, organism-based;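 also: potency for reduction of bacterial viability or growth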
BJ = assay: growth inhibition of engineered Ras-driven BJ cells – cell-based, alamar blue fluorescence, cherrypicked samples, dose response (AID 2631); type: functional; conditions: Homo sapiens;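 also: confirmatory dose-response assay in RAS-dependent BJ fibroblasts engineered with TERT, LT and ST, with cytotoxicity read by fluorescence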
Cytochrome P450 1A2 = molecular target: T7, Cytochrome P450 1A2 (Homo sapiens, UniProt P05177);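 also: PubChem cytochrome P450 panel assay, CYP1A2 panel member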
T7 sequence (P05177 whole entry): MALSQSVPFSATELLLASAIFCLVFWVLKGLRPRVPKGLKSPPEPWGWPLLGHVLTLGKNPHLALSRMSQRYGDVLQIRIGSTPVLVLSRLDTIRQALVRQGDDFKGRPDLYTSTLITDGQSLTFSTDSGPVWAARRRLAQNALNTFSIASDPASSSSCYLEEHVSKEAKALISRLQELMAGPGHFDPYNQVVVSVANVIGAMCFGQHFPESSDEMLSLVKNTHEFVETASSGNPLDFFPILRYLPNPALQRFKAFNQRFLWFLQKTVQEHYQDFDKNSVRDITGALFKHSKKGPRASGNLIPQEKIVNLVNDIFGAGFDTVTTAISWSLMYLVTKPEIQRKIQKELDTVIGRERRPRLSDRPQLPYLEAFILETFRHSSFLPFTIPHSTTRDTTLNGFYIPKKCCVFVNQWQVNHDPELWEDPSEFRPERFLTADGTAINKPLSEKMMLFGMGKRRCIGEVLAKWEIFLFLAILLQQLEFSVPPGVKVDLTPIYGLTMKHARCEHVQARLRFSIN

[21] = molecular target: T8, Low molecular weight phosphotyrosine protein phosphatase (Homo sapiens, UniProt P24666); type: functional; conditions: read-out: IC50_Mean
T8 sequence (P24666 whole entry): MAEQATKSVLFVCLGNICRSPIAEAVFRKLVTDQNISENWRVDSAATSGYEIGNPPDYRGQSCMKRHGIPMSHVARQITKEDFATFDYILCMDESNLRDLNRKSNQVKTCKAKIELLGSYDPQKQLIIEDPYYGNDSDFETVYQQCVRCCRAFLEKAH

[22] = Luminescence Cell-Based Dose Response HTS to Identify Inhibitors of 5'UTR Stem-Loop Driven Prion Protein mRNA Translation in H4 Neuroglioblastoma Cells. [Related pubchem assays: 1827 (Project Summary), 1813 (Primary HTS)]; type: functional
[23] = rise of 4N DNA cells, HeLa – IC50, dose response (AID 1117351); type: functional, cell-based
[24] = alpha-synuclein stem-loop luciferase translation blockers – H4 neuroglioma cells, luminescence, confirmation (AID 1988); type: functional, cell-based
[25] = tested on: Streptococcus sp. 'group A'; assay: Streptococcus pyogenes SK(-)GAS viability under kanamycin – luminescence, BacTiterGlo, confirmation, counter-screen for streptokinase expression inhibitor project, dose response (AID 1900); type: functional, organism-based
[26] = molecular target: T8, Low molecular weight phosphotyrosine protein phosphatase; type: functional; conditions: read-out: IC50_Mean; remark: listed apart in the source
[27] = rise of 2N DNA cells, HeLa – IC50, dose response (AID 1117349); type: functional, cell-based
Streptokinase A = molecular target: T9, Streptokinase A (Streptococcus pyogenes serotype M1, UniProt P10520); assay: viability-normalized secreted streptokinase activity reduction – plasminogen activation absorbance, OD405, dose response (AID 1914); type: functional, Streptococcus pyogenes M1 GAS;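 also: secreted streptokinase activity via plasminogen activation per viability signal from cell pellet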
T9 sequence (P10520 whole entry): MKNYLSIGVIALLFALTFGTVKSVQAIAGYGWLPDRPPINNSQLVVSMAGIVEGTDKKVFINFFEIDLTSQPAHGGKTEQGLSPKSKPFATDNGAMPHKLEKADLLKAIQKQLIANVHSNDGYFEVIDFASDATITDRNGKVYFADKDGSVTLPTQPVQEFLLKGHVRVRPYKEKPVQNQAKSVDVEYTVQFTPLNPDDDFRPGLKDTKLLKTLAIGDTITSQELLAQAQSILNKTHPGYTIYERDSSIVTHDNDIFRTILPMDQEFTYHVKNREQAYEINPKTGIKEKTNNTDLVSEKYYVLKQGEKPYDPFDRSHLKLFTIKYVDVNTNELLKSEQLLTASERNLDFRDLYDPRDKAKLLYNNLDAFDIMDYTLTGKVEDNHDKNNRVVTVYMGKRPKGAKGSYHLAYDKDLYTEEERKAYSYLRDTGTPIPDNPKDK

T2 sequence (P08183 whole entry): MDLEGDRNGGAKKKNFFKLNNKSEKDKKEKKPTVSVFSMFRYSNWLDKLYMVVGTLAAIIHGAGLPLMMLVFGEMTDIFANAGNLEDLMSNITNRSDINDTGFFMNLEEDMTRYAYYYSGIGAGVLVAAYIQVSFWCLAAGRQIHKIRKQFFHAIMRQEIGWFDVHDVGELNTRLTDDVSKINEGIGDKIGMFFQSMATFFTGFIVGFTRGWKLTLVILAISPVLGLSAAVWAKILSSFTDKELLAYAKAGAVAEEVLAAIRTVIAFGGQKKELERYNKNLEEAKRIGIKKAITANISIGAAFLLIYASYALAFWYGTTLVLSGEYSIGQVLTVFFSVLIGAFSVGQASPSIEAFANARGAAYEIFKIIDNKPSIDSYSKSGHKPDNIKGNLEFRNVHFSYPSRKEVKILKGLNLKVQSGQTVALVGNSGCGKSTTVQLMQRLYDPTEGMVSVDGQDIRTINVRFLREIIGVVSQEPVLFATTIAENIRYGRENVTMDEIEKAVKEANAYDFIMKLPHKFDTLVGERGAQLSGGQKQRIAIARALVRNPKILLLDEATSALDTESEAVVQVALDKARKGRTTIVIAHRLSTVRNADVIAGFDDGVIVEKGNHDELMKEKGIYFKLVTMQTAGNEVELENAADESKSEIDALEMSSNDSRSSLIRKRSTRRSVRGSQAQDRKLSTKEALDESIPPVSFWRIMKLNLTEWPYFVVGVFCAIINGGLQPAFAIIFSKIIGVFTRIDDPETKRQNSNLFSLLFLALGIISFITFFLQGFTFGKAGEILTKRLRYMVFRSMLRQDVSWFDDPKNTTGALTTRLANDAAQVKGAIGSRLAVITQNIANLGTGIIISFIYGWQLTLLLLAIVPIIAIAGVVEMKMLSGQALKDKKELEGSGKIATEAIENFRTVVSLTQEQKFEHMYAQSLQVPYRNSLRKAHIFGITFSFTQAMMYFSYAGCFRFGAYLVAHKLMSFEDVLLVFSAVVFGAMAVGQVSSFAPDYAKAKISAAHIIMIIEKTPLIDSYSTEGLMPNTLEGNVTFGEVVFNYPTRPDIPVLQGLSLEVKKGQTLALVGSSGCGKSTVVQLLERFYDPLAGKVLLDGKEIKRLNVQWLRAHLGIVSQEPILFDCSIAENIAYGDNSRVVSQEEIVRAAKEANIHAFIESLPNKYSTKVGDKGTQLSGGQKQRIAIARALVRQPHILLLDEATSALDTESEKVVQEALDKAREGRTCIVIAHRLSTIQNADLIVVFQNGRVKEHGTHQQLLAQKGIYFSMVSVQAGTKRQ
T5 sequence (Q9P0U3 whole entry, the tested form may be a part): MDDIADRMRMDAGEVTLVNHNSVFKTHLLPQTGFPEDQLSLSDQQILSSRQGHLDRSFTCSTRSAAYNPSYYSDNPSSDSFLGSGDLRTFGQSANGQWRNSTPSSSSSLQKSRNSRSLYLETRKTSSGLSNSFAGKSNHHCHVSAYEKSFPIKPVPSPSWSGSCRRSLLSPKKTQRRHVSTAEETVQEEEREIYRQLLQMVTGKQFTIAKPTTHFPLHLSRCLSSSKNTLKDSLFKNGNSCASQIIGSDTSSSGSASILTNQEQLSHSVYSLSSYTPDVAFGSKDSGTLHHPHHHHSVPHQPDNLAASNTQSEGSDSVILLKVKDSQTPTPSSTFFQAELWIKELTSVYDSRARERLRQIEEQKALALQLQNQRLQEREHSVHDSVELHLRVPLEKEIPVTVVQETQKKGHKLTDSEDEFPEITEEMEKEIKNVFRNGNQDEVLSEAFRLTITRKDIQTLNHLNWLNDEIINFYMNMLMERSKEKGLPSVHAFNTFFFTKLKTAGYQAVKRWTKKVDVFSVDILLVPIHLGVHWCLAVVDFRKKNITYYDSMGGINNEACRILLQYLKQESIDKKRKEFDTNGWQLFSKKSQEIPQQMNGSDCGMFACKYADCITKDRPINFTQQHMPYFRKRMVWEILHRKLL
T4 sequence (Q79MP6 whole entry): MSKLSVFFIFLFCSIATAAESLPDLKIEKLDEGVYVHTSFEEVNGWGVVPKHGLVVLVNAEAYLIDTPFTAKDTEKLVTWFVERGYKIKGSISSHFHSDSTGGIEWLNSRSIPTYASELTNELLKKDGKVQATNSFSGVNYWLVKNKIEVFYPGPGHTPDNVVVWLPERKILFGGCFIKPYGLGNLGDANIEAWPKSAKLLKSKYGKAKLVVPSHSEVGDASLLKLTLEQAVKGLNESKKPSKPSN
Sequence of Cytochrome P450 2C19 (P33261 whole entry): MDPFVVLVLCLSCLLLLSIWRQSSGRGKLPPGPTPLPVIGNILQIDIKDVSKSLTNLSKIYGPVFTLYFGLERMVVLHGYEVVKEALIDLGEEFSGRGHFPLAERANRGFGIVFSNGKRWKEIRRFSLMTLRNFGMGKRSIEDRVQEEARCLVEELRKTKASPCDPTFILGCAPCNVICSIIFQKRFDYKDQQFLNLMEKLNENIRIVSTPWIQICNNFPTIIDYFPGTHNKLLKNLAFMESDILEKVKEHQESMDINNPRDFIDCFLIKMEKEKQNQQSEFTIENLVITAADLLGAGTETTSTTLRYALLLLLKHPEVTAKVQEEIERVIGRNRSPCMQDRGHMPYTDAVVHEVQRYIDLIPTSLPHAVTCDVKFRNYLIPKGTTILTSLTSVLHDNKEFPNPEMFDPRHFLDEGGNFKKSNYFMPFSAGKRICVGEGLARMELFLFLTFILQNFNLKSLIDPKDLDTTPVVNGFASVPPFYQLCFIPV
Sequence of Cytochrome P450 2C9 (P11712 whole entry): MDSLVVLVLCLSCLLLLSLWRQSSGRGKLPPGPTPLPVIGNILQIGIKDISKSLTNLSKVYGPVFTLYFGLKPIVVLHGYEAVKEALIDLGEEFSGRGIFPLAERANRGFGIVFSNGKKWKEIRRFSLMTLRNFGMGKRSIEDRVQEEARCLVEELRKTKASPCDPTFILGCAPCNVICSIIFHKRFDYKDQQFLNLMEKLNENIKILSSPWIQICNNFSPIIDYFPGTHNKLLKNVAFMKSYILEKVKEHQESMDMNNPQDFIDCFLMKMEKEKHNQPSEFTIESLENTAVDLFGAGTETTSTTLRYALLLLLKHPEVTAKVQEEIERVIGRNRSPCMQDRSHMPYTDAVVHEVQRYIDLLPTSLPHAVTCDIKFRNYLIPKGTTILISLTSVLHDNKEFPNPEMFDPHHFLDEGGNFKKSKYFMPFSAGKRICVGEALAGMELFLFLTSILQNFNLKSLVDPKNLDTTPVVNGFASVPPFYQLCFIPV
Sequence of Protein S100-A4 (P26447 whole entry): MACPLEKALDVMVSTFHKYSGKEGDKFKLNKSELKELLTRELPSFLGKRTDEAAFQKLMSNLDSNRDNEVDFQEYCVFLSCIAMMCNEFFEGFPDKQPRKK
Sequence of Cytochrome P450 2D6 (P10635 whole entry): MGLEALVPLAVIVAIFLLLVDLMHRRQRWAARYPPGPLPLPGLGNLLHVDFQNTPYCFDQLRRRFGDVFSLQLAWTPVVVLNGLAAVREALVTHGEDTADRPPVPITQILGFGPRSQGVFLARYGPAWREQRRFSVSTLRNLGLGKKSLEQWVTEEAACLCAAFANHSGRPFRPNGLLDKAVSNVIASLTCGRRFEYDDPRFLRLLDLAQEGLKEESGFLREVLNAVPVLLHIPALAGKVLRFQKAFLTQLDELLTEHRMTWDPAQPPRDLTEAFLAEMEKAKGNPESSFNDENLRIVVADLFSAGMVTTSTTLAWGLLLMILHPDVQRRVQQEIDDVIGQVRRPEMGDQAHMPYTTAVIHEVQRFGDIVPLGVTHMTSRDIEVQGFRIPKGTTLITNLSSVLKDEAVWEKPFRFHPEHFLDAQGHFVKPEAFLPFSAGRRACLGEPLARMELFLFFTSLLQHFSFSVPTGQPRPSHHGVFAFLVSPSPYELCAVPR
Sequence of Mitochondrial peptide methionine sulfoxide reductase (P54149 whole entry): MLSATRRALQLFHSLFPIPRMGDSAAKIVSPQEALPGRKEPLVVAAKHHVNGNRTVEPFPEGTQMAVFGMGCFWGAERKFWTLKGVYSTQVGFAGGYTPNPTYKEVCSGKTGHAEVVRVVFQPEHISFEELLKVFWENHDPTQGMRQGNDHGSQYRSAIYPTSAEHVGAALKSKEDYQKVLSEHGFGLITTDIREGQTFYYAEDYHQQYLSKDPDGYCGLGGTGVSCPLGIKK
Sequence of DNA repair and recombination protein RAD54-like (Q92698 whole entry, the tested form may be a part): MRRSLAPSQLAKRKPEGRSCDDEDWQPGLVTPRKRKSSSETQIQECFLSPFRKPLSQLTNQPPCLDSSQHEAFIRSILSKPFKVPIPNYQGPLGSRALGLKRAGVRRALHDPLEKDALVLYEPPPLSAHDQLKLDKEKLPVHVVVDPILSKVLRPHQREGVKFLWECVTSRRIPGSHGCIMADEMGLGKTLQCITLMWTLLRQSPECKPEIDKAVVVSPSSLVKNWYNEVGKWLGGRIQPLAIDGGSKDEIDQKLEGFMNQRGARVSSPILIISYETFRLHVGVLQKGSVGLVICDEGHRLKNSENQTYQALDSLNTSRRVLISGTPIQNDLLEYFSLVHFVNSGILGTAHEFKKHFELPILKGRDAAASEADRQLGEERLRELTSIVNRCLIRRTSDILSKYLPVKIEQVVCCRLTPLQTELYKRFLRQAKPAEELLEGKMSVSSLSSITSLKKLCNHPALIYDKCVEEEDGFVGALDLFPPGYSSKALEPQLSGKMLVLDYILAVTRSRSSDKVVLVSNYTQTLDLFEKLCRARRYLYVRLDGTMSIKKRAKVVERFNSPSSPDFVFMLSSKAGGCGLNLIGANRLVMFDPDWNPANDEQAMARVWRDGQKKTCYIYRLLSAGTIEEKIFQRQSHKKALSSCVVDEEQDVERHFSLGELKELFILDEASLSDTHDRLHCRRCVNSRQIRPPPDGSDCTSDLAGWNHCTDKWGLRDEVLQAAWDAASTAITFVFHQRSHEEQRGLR
Sequence of Beta-lactamase (Salmonella choleraesuis (strain SC-B67), UniProt Q5J463) (Q5J463 whole entry): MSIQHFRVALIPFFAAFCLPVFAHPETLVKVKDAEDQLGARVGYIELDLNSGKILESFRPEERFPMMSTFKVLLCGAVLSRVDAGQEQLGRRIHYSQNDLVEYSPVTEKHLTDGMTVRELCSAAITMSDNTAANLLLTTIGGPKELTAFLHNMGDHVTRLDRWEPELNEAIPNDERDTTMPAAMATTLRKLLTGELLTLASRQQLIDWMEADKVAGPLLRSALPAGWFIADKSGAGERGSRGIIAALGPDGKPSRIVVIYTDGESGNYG

CC1(C)c2ccccc2N2CC(=O)N(CC(N)=O)C21C (stereo not given)
AC50 (Protein S100-A4): 1.93 µM (active)

O=C(Nc1ccc(S(=O)(=O)NC2=NCCCCC2)cc1)c1ccc(Cl)cc1Cl
IC50 [1]: 0.864 µM (active) | IC50 [2]: 7.42 µM (active) | IC50 [3]: 4.47 µM (active)

COc1ccc(CN2C(=O)c3ccccc3C2=O)cc1C(=O)Nc1ccccc1N1CCOCC1
EC50 [4]: 0.428 µM (active) | EC50 [5]: 0.34 µM (inactive)

Brc1ccc2ncnc(NCc3cccnc3)c2c1
IC50 (Interleukin-8 [6]): 4.61 µM (active) | IC50 (Interleukin-8 [7]): 1.77 µM (active)

Cc1ccc(S(=O)(=O)n2[nH]c(=O)cc2NC(=O)c2cccs2)cc1
IC50 (Beta-lactamase [8]): > 59.6 µM (inactive) | IC50 (Beta-lactamase [9]): > 59.6 µM (inactive) | IC50 (Beta-lactamase [10]): > 59.6 µM (inactive)

CN(C)CCN(C(=O)c1ccc2c(c1)OCCO2)c1nc2c(Cl)cccc2s1
AC50 [11]: 55.1 µM (active)

N=c1oc2ccc([N+](=O)[O-])cc2cc1C(=O)NCc1ccccc1
IC50 [12]: 2.45 µM (active) | IC50 [13]: 9.4 µM (active)

NC(=O)c1[nH]cnc1N
AC50 [14]: 90.5 µM (active)

COc1cccc(-c2cc3nc(-c4ccccc4)cc(N4CCN(C(=O)c5ccco5)CC4)n3n2)c1
EC50 [15]: 1.17 µM (active) | EC50 [16]: 4.32 µM (active)

CCOC(=O)C(C)/C(C)=N\Nc1ccc([N+](=O)[O-])cc1[N+](=O)[O-] (stereo not given)
IC50 [17]: > 50 µM (not active) | IC50 [18]: 155 µM (inactive)

CCc1nc(N)nc(N)c1-c1ccc(Cl)cc1 [PYRIMETHAMINE]
EC50 [19]: 3.81 µM (active) | AC50 (Cytochrome P450 2D6): 7.94 µM (inconclusive) | AC50 (Cytochrome P450 2C9): inactive | AC50 [20]: 23 µM (active) | AC50 (Cytochrome P450 2C19): inactive | EC50 (Streptococcus): 51.2 µM (active) | EC50 (BJ): > 133 µM (inactive) | AC50 (Cytochrome P450 1A2): 10 µM (inconclusive) | IC50 [21]: 32.9 µM (inactive) | EC50 [22]: 10.5 µM (active) | IC50 [23]: > 10 µM (inactive) | EC50 [24]: 0.2 µM (active) | EC50 [25]: 3.09 µM (active) | IC50 [26]: 16.5 µM (active) | IC50 [27]: > 10 µM (inactive) | EC50 (Streptokinase A): > 150 µM (not active)
